Results published in US8604198B2, “Salt of proline derivative, solvate thereof, and production method thereof” (Mitsubishi Tanabe Pharma Corporation, priority 2005, dated 2013).

How the values were obtained:
Format in all cases: physicochemical
[1] = Measurement of solubility in water (visual observation); details: 37° C., shaken 1 hr
Procedure: As a measurement method, visual observation was used, which permits convenient evaluation of rough solubility with a small amount of sample. The temperature during measurement was 37° C. About 3 mg of the title compound of Example 3 was taken in a sample bottle with a screw cap, a test solution (0.15 mL) was added and the cap was screwed tightly thereon. The sample was ultrasonicated for 1 min to give a dispersion, which was placed in a shaking-type thermostat water bath stabilized at 37° C. and shaken for 1 hr. Then, dissolution was confirmed by visual observation.

[2] = Measurement of solubility at pH 9-13 (HPLC)
Procedure: Using 0.2 mol/L NaOH/0.1 mol/L NaCl mixed solution as a test solution, the solubility of the title compound of Example 3 having a pH of 9-13 at room temperature was analyzed by liquid chromatography (HPLC) (n=3). […] From the foregoing, the solubility of the title compound of Example 3 was concluded to be about 7 mg/mL.

[3] = Measurement of hygroscopicity (moisture adsorption measurement); details: 25° C., reduced pressure type moisture adsorption measurement apparatus
Procedure: The hygroscopicity of the title compound of Example 3 was measured under the following conditions using a moisture adsorption measurement apparatus. • apparatus: MB-300G manufactured by VTI • measurement temperature: 25° C. • measurement range: 0-95% RH
The title compound of Example 3 was subjected to a moisture adsorption measurement using a reduced pressure type moisture adsorption measurement apparatus.

## Br.Br.Br.Br.Br.Cc1cc(N2CCN([C@@H]3CN[C@H](C(=O)N4CCSC4)C3)CC2)n(-c2ccccc2)n1.Cc1cc(N2CCN([C@@H]3CN[C@H](C(=O)N4CCSC4)C3)CC2)n(-c2ccccc2)n1 [Example 3, 3-{(2S,4S)-4-[4-(3-methyl-1-phenyl-1H-pyrazol-5-yl)piperazin-1-yl]pyrrolidin-2-ylcarbonyl}thiazolidine 2.5 hydrobromide]
[1]
  solubility in water: not less than 20 mg/mL
[2]; pH 8.81, 25° C.
  Solubility: 8400 µg/mL
[2]; pH 9-13, room temperature, conclusion from the measured range
  solubility (concluded): about 7 mg/mL
[2]; pH 11.94, 25° C.
  Solubility: 7200 µg/mL
[2]; pH 11.98, 25° C.
  Solubility: 7900 µg/mL
[2]; pH 12.10, 25° C.
  Solubility: 7200 µg/mL
[2]; pH 12.26, 25° C.
  Solubility: 7800 µg/mL
[2]; pH 12.70, 25° C.
  Solubility: 6400 µg/mL
[2]; pH 12.99, 25° C.
  Solubility: 6800 µg/mL
[3]; 0% RH
  state of water content: almost completely dry
[3]; 50% RH
  water maintained, corresponding to hydrate: 1.8 hydrate
